Where two headings read alike, the source gives them in different places.
Columns and labels:
[1] = biological target: T1, P-gp (P-glycoprotein, MDR1) (Homo sapiens, UniProt P08183); experiment: MDCKII-MDR1 permeability, bidirectional assay; assay type: in vitro ADME; details: dog, MDCK-MDR1, MDCKII-MDR1 cells, HBSS+12.5 mM HEPES pH 7.4
T1 construct: host or cells: MDCKII-MDR1 cells (pre-plated, Corning HTS Transwell-96)
Procedure: The blood brain barrier (BBB) separates circulating blood from the extracellular fluid of the central nervous system (CNS). […] A bidirectional assay (Apical to Basolateral (A→B) and Basolateral to Apical (B→A)), in the absence and in the presence of GF120918 (a P-gp inhibitor) was conducted using pre-plated MDCKII-MDR1 cells (Corning HTS Transwell-96) obtained from SOLVO Biotechnology. The assay was run at 3 μM for 90 min (minutes) in triplicate using a HBSS+12.5 mM HEPES pH 7.4 transport buffer. Following incubation of samples from donor and receiver, wells were removed and measured by LC-MS/MS. Samples were extracted by protein precipitation with acetonitrile containing an appropriate internal standard (IS) having a known mass and molecular weight. The precipitate was centrifuged for 10 min at 3000 rpm (revolutions per minute). The supernatants were then collected, diluted if necessary, and injected on to the LC-MS/MS system. Specific parent/daughter ion pairs for the test article and IS were used to selectively measure the test articles. Papp (apparent permeability expressed in nm/sec [nanometer/second]) values were calculated according to the following equation: […]
Where dQ/dt is the permeability rate, C0 is the initial concentration in the donor solution (expressed as IS ratio), A and B are the surface areas of the filter (the surface area of the cell monolayer).
Monolayer efflux ratios (ER) were derived using the following equation: […]

[2] = tested on: ISR pathway (ATF4 translation); experiment: ATF4 Nano Luciferase reporter integrated stress response (ISR) assay in H4 ATF4-NLuc cells; details: Homo sapiens, compound 30 minutes, then 50 um sodium arsenite for 6 hours, luminescence readout
[3] = read-out: Activity (IC50), H4 ATF4-NLuc (clone 17) cells

T1 sequence (P08183 whole entry): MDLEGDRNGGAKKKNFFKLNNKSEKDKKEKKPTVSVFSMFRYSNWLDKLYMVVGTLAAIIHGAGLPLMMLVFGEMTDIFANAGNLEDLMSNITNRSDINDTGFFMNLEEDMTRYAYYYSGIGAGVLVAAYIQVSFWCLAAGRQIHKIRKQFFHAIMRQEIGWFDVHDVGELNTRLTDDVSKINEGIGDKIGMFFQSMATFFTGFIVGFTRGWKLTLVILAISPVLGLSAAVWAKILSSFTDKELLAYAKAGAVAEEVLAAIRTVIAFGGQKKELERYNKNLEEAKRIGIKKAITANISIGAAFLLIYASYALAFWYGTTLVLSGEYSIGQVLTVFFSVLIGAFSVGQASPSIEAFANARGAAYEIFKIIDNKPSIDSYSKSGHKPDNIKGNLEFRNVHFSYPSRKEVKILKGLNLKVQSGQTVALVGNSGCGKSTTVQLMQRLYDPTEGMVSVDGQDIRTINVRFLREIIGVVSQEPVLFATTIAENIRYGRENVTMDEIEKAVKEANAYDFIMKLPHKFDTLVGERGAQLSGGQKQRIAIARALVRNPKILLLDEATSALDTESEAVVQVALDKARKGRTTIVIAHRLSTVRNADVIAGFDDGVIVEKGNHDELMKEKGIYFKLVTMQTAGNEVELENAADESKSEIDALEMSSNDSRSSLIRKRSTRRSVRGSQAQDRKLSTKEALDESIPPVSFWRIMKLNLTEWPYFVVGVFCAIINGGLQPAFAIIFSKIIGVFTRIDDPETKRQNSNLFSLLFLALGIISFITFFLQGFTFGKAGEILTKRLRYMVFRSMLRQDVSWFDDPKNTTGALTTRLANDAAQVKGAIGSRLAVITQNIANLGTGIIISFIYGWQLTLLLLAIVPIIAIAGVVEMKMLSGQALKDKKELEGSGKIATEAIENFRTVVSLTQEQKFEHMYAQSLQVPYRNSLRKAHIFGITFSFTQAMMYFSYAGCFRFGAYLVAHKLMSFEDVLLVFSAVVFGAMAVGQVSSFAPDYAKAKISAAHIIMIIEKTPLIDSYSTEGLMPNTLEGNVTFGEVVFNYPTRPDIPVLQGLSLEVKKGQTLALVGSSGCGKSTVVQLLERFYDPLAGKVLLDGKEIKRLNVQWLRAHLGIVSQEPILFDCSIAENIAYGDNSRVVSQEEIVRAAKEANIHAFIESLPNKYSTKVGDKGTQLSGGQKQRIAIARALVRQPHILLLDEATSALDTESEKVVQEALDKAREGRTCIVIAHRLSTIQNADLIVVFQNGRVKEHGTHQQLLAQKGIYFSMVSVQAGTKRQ

Row | Compound | efflux ratio at 90 min, 3 μM [1] | IC50 ([2]; H4 ATF4-NLuc (clone 17) cells) [nM] | IC50 [2, 3] [nM]
1 | O=C(CO[C@H]1C[C@@H](OC(F)(F)F)C1)NC12CC(c3cnn(-c4ccc(Cl)c(F)c4)c3)(C1)C2 [Example 236, N-(3-(1-(4-chloro-3-fluorophenyl)-1H-pyrazol-4-yl)bicyclo[1.1.1]pentan-1-yl)-2-(3-cis-(trifluoromethoxy)cyclobutoxy)acetamide] | ≤ 2.5 | 21.5 | < 1000
2 | O=C(CO[C@H]1C[C@@H](OC(F)(F)F)C1)NC12CC(n3cnc(-c4ccc(Cl)cc4F)c3)(C1)C2 [Example 146, N-(3-(4-(4-chloro-2-fluorophenyl)-1H-imidazol-1-yl)bicyclo[1.1.1]pentan-1-yl)-2-(3-cis-(trifluoromethoxy)cyclobutoxy)acetamide] | ≤ 2.5 | 3.7 | < 1000
3 | O=C(CO[C@H]1C[C@@H](OC(F)(F)F)C1)NC12CC(n3cnc(-c4ccc(Cl)c(F)c4)c3)(C1)C2 [Example 70, N-[3-[4-(4-chloro-3-fluoro-phenyl)imidazol-1-yl]-1-bicyclo[1.1.1]pentanyl]-2-[3-cis-(trifluoromethoxy)cyclobutoxy]acetamide] | ≤ 2.5 | 2.8 | < 1000
4 | O=C(CO[C@H]1C[C@@H](OC(F)(F)F)C1)NC12CC(n3cnc(-c4ccc(C(F)(F)F)cc4O)c3)(C1)C2 [Example 254, N-(3-(4-(2-hydroxy-4-(trifluoromethyl)phenyl)-1H-imidazol-1-yl)bicyclo[1.1.1]pentan-1-yl)-2-(3-cis-(trifluoromethoxy)cyclobutoxy)acetamide] | ≤ 2.5 | 5.3 | < 1000
5 | O=C(COc1ccc(Cl)c(F)c1)NC12CC(c3nnc(CCCOC(F)(F)F)o3)(C1)C2 [Example 49, 2-(4-chloro-3-fluorophenoxy)-N-(3-(5-(3-(trifluoromethoxy)propyl)-1,3,4-oxadiazol-2-yl)bicyclo[1.1.1]pentan-1-yl)acetamide] | ≤ 2.5 | 18.2 | < 1000
6 | O=C(CO[C@H]1C[C@@H](OC(F)(F)F)C1)NC12CC(n3cnc(-c4ccc(Cl)c(F)c4F)c3)(C1)C2 [Example 270, N-(3-(4-(4-chloro-2,3-difluorophenyl)-1H-imidazol-1-yl)bicyclo[1.1.1]pentan-1-yl)-2-(3-cis-(trifluoromethoxy)cyclobutoxy)acetamide] | ≤ 2.5 | 1.1 | < 1000
